Like-named read-outs stand apart in the source and are kept apart here.
Tests used:
HeLa cells = experiment: Fluorescent imaging of live cells; assay type: cell-based; conditions: 10 μM substrate
Protocol: HeLa cells were plated at 40,000 cell/well into wells of an 8-well chambered coverslip and incubated at 37° C.+5% CO2. The media (DMEM) was replaced with warm complete media (with 10% FBS) containing 10 μM PBI-4412, 4413, 4440 or 4441. Cells were then transferred to a confocal microscope for imaging using 10% λ488 nm laser power (4412, 4413, and 4441) or 5% laser power (4440). All images (FIGS. 6a-d) are at 30× magnification.

rat diaphorase [1] = biological target: T1, rat diaphorase (Rattus norvegicus, UniProt P05982); assay type: biochemical; conditions: for FLUs: 1 u/ml rat diaphorase; for Fluorescence time course, Rat: 10 uM NADH
T1 construct: purchased Sigma
T1 sequence (P05982 2-274 limits assumed): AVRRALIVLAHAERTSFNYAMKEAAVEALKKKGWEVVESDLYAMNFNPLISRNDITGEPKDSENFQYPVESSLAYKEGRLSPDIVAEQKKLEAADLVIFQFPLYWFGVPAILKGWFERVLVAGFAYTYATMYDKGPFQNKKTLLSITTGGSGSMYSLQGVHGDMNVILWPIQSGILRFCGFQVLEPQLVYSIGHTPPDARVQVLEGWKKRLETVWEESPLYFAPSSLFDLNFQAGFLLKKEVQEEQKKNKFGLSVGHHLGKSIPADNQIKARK

Clostridium diaphorase [2] = experiment: Fluorescent NADH detection assay, Clostridium diaphorase; assay type: biochemical; conditions: for FLUs: 1 u/ml Clostridium diaphorase; for Fluorescence time course, Clostridium: 10 uM NADH
Protocol: Each fluorescent substrate (PBI-4412, 4413, 4440, and 4441) was incubated at 920 μM with 0 μM or 10 μM NADH (Sigma) or a titration of NADH (Table 8) and 1 u/ml rat diaphorase (Sigma) or 1 u/ml Clostridium diaphorase (Sigma) in a volume of 100 μl in 50 mM Tris pH 7.5. Single reactions were prepared in the wells of a 96-well black plate at room temperature. Fluorescence was monitored over the course of two hours at excitation and emission wavelengths of 485 and 527, respectively, using a fluorescence plate reader. […] Table 7 and FIGS. 24a-b show the reaction time course with each substrate with 10 uM NADH. Table 8 and FIG. 25 show the NADH titration at 60 minutes with PBI-4440 and 4412 with rat diaphorase.

Clostridium diaphorase [3] = assay type: biochemical
rat diaphorase [4] = assay type: biochemical
rat diaphorase [5] = assay type: biochemical; remark: listed apart in the source
rat diaphorase [6] = assay type: biochemical; conditions: 20 μM compound
rat diaphorase [7] = assay type: biochemical; conditions: 20 μM compound, 40 min
rat diaphorase [8] = assay type: biochemical; remark: listed apart in the source
[9] = 10 μM NADH, 60 min, substrate 920 μM
[10] = 20 μM compound, 10 μM NADH, 0.5 u/ml Clostridium diaphorase, 70 min
[11] = 20 μM compound, no NADH, 0.5 u/ml Clostridium diaphorase, 70 min
[12] = signal with NADH / without NADH, Clostridium diaphorase
[13] = reaction time 0 min, 20 μM compound, 10 μM NADH
[14] = ~1 min after LDR with 500 μM menadione, 20 μM compound, 10 μM NADH
[15] = ~1 min after LDR, 20 μM compound, 10 μM NADH
[16] = ~6 min after LDR with 500 μM menadione, 20 μM compound, 10 μM NADH
[17] = ~6 min after LDR, 20 μM compound, 10 μM NADH
[18] = NADH no, diaphorase yes (5 u/ml rat)
[19] = NADH yes (10 μM), diaphorase no
[20] = NADH yes (10 μM), diaphorase yes (5 u/ml rat), 20 min
[21] = 20 μM compound, 10 μM NADH, 5 u/ml rat diaphorase, 70 min
[22] = 20 μM compound, no NADH, 5 u/ml rat diaphorase, 70 min
[23] = signal with NADH / without NADH, rat diaphorase

CC1=C(C)C(=O)C(C(C)(C)CC(=O)N(C)CCN(C)C(=O)Oc2ccc3c(c2)Oc2cc(OC(=O)N(C)CCN(C)C(=O)CC(C)(C)C4=C(C)C(=O)C(C)=C(C)C4=O)ccc2C32OC(=O)c3ccccc32)=C(C)C1=O [PBI 4441, Bis-quinone trimethyllock diamine fluorescein]
reduction of substrate in live cells (confocal images) (HeLa cells): only reduced once inside cells
FLUs (rat diaphorase [1]; 0 μM NADH, 60 min): 120 FLUs
FLUs (rat diaphorase [1]; [9]): 7387 FLUs
Fluorescence time course, Rat (rat diaphorase [1]; 2 min): 302 FLUs
Fluorescence time course, Rat (rat diaphorase [1]; 4 min): 608 FLUs
Fluorescence time course, Rat (rat diaphorase [1]; 5 min): 827 FLUs
Fluorescence time course, Rat (rat diaphorase [1]; 10 min): 1961 FLUs
Fluorescence time course, Rat (rat diaphorase [1]; 20 min): 3454 FLUs
Fluorescence time course, Rat (rat diaphorase [1]; 30 min): 4460 FLUs
Fluorescence time course, Rat (rat diaphorase [1]; 40 min): 5442 FLUs
Fluorescence time course, Rat (rat diaphorase [1]; 50 min): 6457 FLUs
Fluorescence time course, Rat (rat diaphorase [1]; 60 min): 7387 FLUs
Fluorescence time course, Rat (rat diaphorase [1]; 70 min): 8891 FLUs
Fluorescence time course, Rat (rat diaphorase [1]; 80 min): 9545 FLUs
Fluorescence time course, Rat (rat diaphorase [1]; 90 min): 9915 FLUs
Fluorescence time course, Rat (rat diaphorase [1]; 100 min): 10496 FLUs
Fluorescence time course, Rat (rat diaphorase [1]; 110 min): 10736 FLUs
Fluorescence time course, Rat (rat diaphorase [1]; 120 min): 11149 FLUs
FLUs (Clostridium diaphorase [2]; 0 μM NADH, 60 min): 314 FLUs
FLUs (Clostridium diaphorase [2]; [9]): 2570 FLUs
Fluorescence time course, Clostridium (Clostridium diaphorase [2]; 2 min): 354 FLUs
Fluorescence time course, Clostridium (Clostridium diaphorase [2]; 4 min): 481 FLUs
Fluorescence time course, Clostridium (Clostridium diaphorase [2]; 5 min): 576 FLUs
Fluorescence time course, Clostridium (Clostridium diaphorase [2]; 10 min): 1152 FLUs
Fluorescence time course, Clostridium (Clostridium diaphorase [2]; 20 min): 1974 FLUs
Fluorescence time course, Clostridium (Clostridium diaphorase [2]; 30 min): 2334 FLUs
Fluorescence time course, Clostridium (Clostridium diaphorase [2]; 40 min): 2515 FLUs
Fluorescence time course, Clostridium (Clostridium diaphorase [2]; 50 min): 2514 FLUs
Fluorescence time course, Clostridium (Clostridium diaphorase [2]; 60 min): 2570 FLUs
Fluorescence time course, Clostridium (Clostridium diaphorase [2]; 70 min): 2584 FLUs
Fluorescence time course, Clostridium (Clostridium diaphorase [2]; 80 min): 2561 FLUs
Fluorescence time course, Clostridium (Clostridium diaphorase [2]; 90 min): 2539 FLUs
Fluorescence time course, Clostridium (Clostridium diaphorase [2]; 100 min): 2555 FLUs
Fluorescence time course, Clostridium (Clostridium diaphorase [2]; 110 min): 2515 FLUs
Fluorescence time course, Clostridium (Clostridium diaphorase [2]; 120 min): 2570 FLUs

CC1=C(C)C(=O)C(C(C)(C)CC(=O)N(C)CC(C)(C)CN(C)C(=O)Oc2ccc3nc(C4=N[C@@H](C(=O)O)CS4)sc3c2)=C(C)C1=O [PBI 4565, Quinone trimethyllock-N,N′,2,2-tetramethylpropanediamine carbamate luciferin]
Avg RLU With NADH (Clostridium diaphorase [3]; [10]): 18559 RLU
Avg RLU Without NADH (Clostridium diaphorase [3]; [11]): 646 RLU
S/B (Clostridium diaphorase [3]; [12]): 29
Avg RLU (rat diaphorase [4]; [13]): 1294 RLU
Avg RLU (rat diaphorase [4]; reaction time 2 min): 41615 RLU
Avg RLU (rat diaphorase [4]; reaction time 5 min): 69945 RLU
Avg RLU (rat diaphorase [4]; reaction time 10 min): 117067 RLU
Avg RLU (rat diaphorase [4]; reaction time 15 min): 154427 RLU
Avg RLU (rat diaphorase [4]; reaction time 25 min): 252212 RLU
Avg RLU (rat diaphorase [4]; reaction time 30 min): 262123 RLU
Avg RLU (rat diaphorase [4]; reaction time 40 min): 278567 RLU
Avg RLU (rat diaphorase [4]; reaction time 50 min): 328037 RLU
Avg RLU (rat diaphorase [4]; reaction time 60 min): 330433 RLU
First Reading With menadione (rat diaphorase [5]; [14]): 324 RLU
First Reading Without menadione (rat diaphorase [5]; [15]): 564 RLU
Last Reading With menadione (rat diaphorase [5]; [16]): 446 RLU
Last Reading Without menadione (rat diaphorase [5]; [17]): 4407 RLU
Avg RLU (rat diaphorase [6]; NADH no, diaphorase no): 801 RLU
Avg RLU (rat diaphorase [6]; [18]): 860 RLU
Avg RLU (rat diaphorase [6]; [19]): 891 RLU
Avg RLU (rat diaphorase [6]; [20]): 98349 RLU
Avg RLU (rat diaphorase [7]; NADH 0 μM): 967 RLU
Avg RLU (rat diaphorase [7]; NADH 0.006 μM): 1120 RLU
Avg RLU (rat diaphorase [7]; NADH 0.012 μM): 1412 RLU
Avg RLU (rat diaphorase [7]; NADH 0.024 μM): 2300 RLU
Avg RLU (rat diaphorase [7]; NADH 0.049 μM): 3065 RLU
Avg RLU (rat diaphorase [7]; NADH 0.098 μM): 4931 RLU
Avg RLU (rat diaphorase [7]; NADH 0.195 μM): 8863 RLU
Avg RLU (rat diaphorase [7]; NADH 0.39 μM): 16200 RLU
Avg RLU (rat diaphorase [7]; NADH 0.78 μM): 13828 RLU
Avg RLU (rat diaphorase [7]; NADH 1.56 μM): 29258 RLU
Avg RLU (rat diaphorase [7]; NADH 3.125 μM): 63621 RLU
Avg RLU (rat diaphorase [7]; NADH 6.25 μM): 128719 RLU
Avg RLU (rat diaphorase [7]; NADH 12.5 μM): 258360 RLU
Avg RLU (rat diaphorase [7]; NADH 25 μM): 294331 RLU
Avg RLU (rat diaphorase [7]; NADH 50 μM): 287306 RLU
Avg RLU (rat diaphorase [7]; NADH 100 μM): 306242 RLU
Avg RLU With NADH (rat diaphorase [8]; [21]): 48903 RLU
Avg RLU Without NADH (rat diaphorase [8]; [22]): 479 RLU
S/B (rat diaphorase [8]; [23]): 102

CC1=C(C)C(=O)C(C(C)(C)CC(=O)N(C)c2ccc(COC(=O)Nc3ccc4nc(C5=N[C@@H](C(=O)O)CS5)sc4c3)cc2)=C(C)C1=O [PBI 4550, Quinone trimethyllock-N-methyl-luciferin carbamate]
Avg RLU With NADH (Clostridium diaphorase [3]): 25644 RLU
Avg RLU Without NADH (Clostridium diaphorase [3]): 2597 RLU
S/B (Clostridium diaphorase [3]): 10
First Reading With menadione (rat diaphorase [5]): 1786 RLU
First Reading Without menadione (rat diaphorase [5]): 16495 RLU
Last Reading With menadione (rat diaphorase [5]): 2393 RLU
Last Reading Without menadione (rat diaphorase [5]): 100603 RLU
Avg RLU With NADH (rat diaphorase [8]): 62987 RLU
Avg RLU Without NADH (rat diaphorase [8]): 2337 RLU
S/B (rat diaphorase [8]): 27

CC1=C(C)C(=O)C(C(C)(C)CC(=O)N(C)CCN(C)C(=O)Oc2ccc3nc(C4=N[C@@H](C(=O)O)CS4)sc3c2)=C(C)C1=O [PBI 4312, quinone trimethyllock-C2-diamine luciferin]
Avg RLU With NADH (Clostridium diaphorase [3]; [10]): 29068 RLU
Avg RLU Without NADH (Clostridium diaphorase [3]; [11]): 5311 RLU
S/B (Clostridium diaphorase [3]; [12]): 5.5
Avg RLU (rat diaphorase [4]; [13]): 7809 RLU
Avg RLU (rat diaphorase [4]; reaction time 2 min): 150745 RLU
Avg RLU (rat diaphorase [4]; reaction time 5 min): 206822 RLU
Avg RLU (rat diaphorase [4]; reaction time 10 min): 305968 RLU
Avg RLU (rat diaphorase [4]; reaction time 15 min): 366592 RLU
Avg RLU (rat diaphorase [4]; reaction time 25 min): 499283 RLU
Avg RLU (rat diaphorase [4]; reaction time 30 min): 529063 RLU
Avg RLU (rat diaphorase [4]; reaction time 40 min): 544475 RLU
Avg RLU (rat diaphorase [4]; reaction time 50 min): 599165 RLU
Avg RLU (rat diaphorase [4]; reaction time 60 min): 571954 RLU
First Reading With menadione (rat diaphorase [5]; [14]): 3527 RLU
First Reading Without menadione (rat diaphorase [5]; [15]): 5900 RLU
Last Reading With menadione (rat diaphorase [5]; [16]): 5062 RLU
Last Reading Without menadione (rat diaphorase [5]; [17]): 39855 RLU
Avg RLU (rat diaphorase [6]; NADH no, diaphorase no): 4262 RLU
Avg RLU (rat diaphorase [6]; [18]): 3910 RLU
Avg RLU (rat diaphorase [6]; [19]): 3918 RLU
Avg RLU (rat diaphorase [6]; [20]): 197017 RLU
Avg RLU (rat diaphorase [7]; NADH 0 μM): 5410 RLU
Avg RLU (rat diaphorase [7]; NADH 0.006 μM): 6447 RLU
Avg RLU (rat diaphorase [7]; NADH 0.012 μM): 7075 RLU
Avg RLU (rat diaphorase [7]; NADH 0.024 μM): 8864 RLU
Avg RLU (rat diaphorase [7]; NADH 0.049 μM): 11190 RLU
Avg RLU (rat diaphorase [7]; NADH 0.098 μM): 20126 RLU
Avg RLU (rat diaphorase [7]; NADH 0.195 μM): 27871 RLU
Avg RLU (rat diaphorase [7]; NADH 0.39 μM): 43659 RLU
Avg RLU (rat diaphorase [7]; NADH 0.78 μM): 33801 RLU
Avg RLU (rat diaphorase [7]; NADH 1.56 μM): 60043 RLU
Avg RLU (rat diaphorase [7]; NADH 3.125 μM): 119311 RLU
Avg RLU (rat diaphorase [7]; NADH 6.25 μM): 235674 RLU
Avg RLU (rat diaphorase [7]; NADH 12.5 μM): 465875 RLU
Avg RLU (rat diaphorase [7]; NADH 25 μM): 608014 RLU
Avg RLU (rat diaphorase [7]; NADH 50 μM): 687602 RLU
Avg RLU (rat diaphorase [7]; NADH 100 μM): 663944 RLU
Avg RLU With NADH (rat diaphorase [8]; [21]): 120633 RLU
Avg RLU Without NADH (rat diaphorase [8]; [22]): 4981 RLU
S/B (rat diaphorase [8]; [23]): 24

From patent US9951372B2, “Compounds and methods for assaying redox state of metabolically active cells and methods for measuring NAD(P)/NAD(P)H” (PROMEGA CORPORATION, priority 2011, dated 2018)
